For assay [1], the target named is T1, human CB2 receptors (Homo sapiens, UniProt P34972).
T1 construct: expressed in transfected cells; host or cells: HEK293
The experiment in a line: human CB2 radioligand binding assay ([3H]CP-55,940 competition).

For assay [2], the target named is T2, rat CB2 (Rattus norvegicus, UniProt Q9QZN9).
T2 sequence (Q9QZN9 1-360): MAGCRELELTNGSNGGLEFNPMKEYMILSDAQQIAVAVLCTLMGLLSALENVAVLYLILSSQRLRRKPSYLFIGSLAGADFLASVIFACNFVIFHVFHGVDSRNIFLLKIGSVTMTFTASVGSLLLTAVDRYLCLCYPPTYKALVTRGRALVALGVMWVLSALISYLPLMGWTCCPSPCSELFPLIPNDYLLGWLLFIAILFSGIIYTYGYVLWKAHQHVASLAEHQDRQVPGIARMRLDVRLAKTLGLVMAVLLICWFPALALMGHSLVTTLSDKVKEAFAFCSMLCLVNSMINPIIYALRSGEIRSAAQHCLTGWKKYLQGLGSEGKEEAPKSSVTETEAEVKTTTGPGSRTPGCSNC
Kind of assay: rat CB2 radioligand binding assay ([3H]CP-55,940 competition). Details: expressed in transfected cells; host or cells: HEK293.

Setting [3] is: HEK293 membranes, 0.5 nM [3H]CP-55,940, read-out: human CB2 (Ki).

Where two headings read alike, the source gives them in different places.

T1 sequence (P34972 whole entry): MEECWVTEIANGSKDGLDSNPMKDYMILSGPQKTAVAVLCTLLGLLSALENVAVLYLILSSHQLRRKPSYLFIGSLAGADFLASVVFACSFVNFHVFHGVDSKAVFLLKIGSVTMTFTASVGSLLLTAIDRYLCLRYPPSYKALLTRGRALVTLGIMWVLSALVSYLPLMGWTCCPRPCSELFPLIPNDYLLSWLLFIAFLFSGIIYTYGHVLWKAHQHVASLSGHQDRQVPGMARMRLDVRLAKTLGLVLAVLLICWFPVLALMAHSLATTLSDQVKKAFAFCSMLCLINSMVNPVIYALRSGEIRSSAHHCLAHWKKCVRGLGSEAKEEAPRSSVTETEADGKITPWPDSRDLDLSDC

In the case of `CCCCc1cn(C2CCC2)s/c1=N\C(=O)c1cc(Cl)ccc1OC` [Example 3, N-[(5Z)-4-butyl-2-cyclobutylisothiazol-5(2H)-ylidene]-5-chloro-2-methoxybenzamide], the figures for the Ki in assay [1] (setting [3]) and in assay [2] were 410 nM and 11 nM, respectively.
As to `CCCCc1c(C)n(C)s/c1=N\C(=O)C12CC3CC(CC1C3)C2` [Example 4, N-[(5Z)-4-butyl-2,3-dimethylisothiazol-5(2H)-ylidene]hexahydro-2,5-methanopentalene-3a(1H)-carboxamide], the inhibition constant (Ki) in assay [1] is 3.8 nM; in assay [2] it was 3.2 nM.
In the same order, the values of `CCCCc1cn(C2(C)CCC2)s/c1=N\C(=O)c1cc(Cl)ccc1OC` [Example 5, N-[(5Z)-4-butyl-2-(1-methylcyclobutyl)isothiazol-5(2H)-ylidene]-5-chloro-2-methoxybenzamide] are 30 nM and 2.2 nM.
For `CCCC1CCc2c(/c(=N/C(=O)c3cc(Cl)ccc3OC)sn2C(C)(C)C)C1` (centres unmarked) [Example 9, N-[(3Z)-1-tert-butyl-5-propyl-4,5,6,7-tetrahydro-2,1-benzisothiazol-3(1H)-ylidene]-5-chloro-2-methoxybenzamide], the inhibitory constant (Ki) was 0.9 nM in assay [1] and 0.42 nM in assay [2].
`COc1ccc(Cl)cc1C(=O)/N=c1\sn(C(C)(C)C)c2c1CC1(CC2)OCCO1` [Example 10, N-[(3Z)-1-tert-butyl-1,4,6,7-tetrahydro-3H-spiro[2,1-benzisothiazole-5,2′-[1,3]dioxolan]-3-ylidene]-5-chloro-2-methoxybenzamide]: the Ki in assay [1] (setting [3]) turned out to be 190 nM; in assay [2], 42 nM.
Compound `COCCc1cn(C(C)(C)C)s/c1=N\C(=O)c1cc(Cl)ccc1OC` [Example 11, N-[(5Z)-2-tert-butyl-4-(2-methoxyethyl)isothiazol-5(2H)-ylidene]-5-chloro-2-methoxybenzamide] registered an inhibitory constant (Ki) in assay [2] of 29 nM.
Take `COc1ccc(Cl)cc1C(=O)/N=c1\sn(C(C)(C)C)cc1CCN1CCOCC1` [Example 12, N-[(5Z)-2-tert-butyl-4-(2-morpholin-4-ylethyl)isothiazol-5(2H)-ylidene]-5-chloro-2-methoxybenzamide]: the Ki in assay [1] (setting [3]) was found to be 230 nM; in assay [2], 12 nM.
On to `CCC1CC1c1cn(C(C)(C)C)s/c1=N\C(=O)c1cc(Cl)ccc1OC` (centres unmarked) [Example 27, N-[(5Z)-2-tert-butyl-4-(2-ethylcyclopropyl)isothiazol-5(2H)-ylidene]-5-chloro-2-methoxybenzamide], for which the inhibitory constant (Ki) was 240 nM in assay [1] (setting [3]) and 23 nM in assay [2].
Consider `COc1ccc(Cl)cc1C(=O)/N=c1\sn(C(C)(C)C)cc1C(O)c1ccccc1` (centres unmarked) [Example 31, N-[(5Z)-2-tert-butyl-4-[hydroxy(phenyl)methyl]isothiazol-5(2H)-ylidene]-5-chloro-2-methoxybenzamide], for which the figures for the Ki in assay [1] and in assay [2] were 63 nM and 5.8 nM, respectively.
Consider `COc1ccc(Cl)cc1C(=O)/N=c1\sn(C(C)(C)C)cc1CN=[N+]=[N-]` [Example 32, N-[(5Z)-4-(azidomethyl)-2-tert-butylisothiazol-5(2H)-ylidene]-5-chloro-2-methoxybenzamide], for which the results for the Ki in assay [1] and in assay [2] were 170 nM and 20 nM, respectively.
Consider `COc1ccc(Cl)cc1C(=O)/N=c1\sn(C(C)(C)C)cc1C(O)CC1CCC1` (centres unmarked) [Example 33, N-[(5Z)-2-tert-butyl-4-(2-cyclobutyl-1-hydroxyethyl)isothiazol-5(2H)-ylidene]-5-chloro-2-methoxybenzamide], for which the Ki in assay [1] turned out to be 3.7 nM; in assay [2], 1 nM.
Turning to `COc1ccc(Cl)cc1C(=O)/N=c1\sn(C(C)(C)C)cc1Cc1ccccc1` [Example 35, N-[(5Z)-4-benzyl-2-tert-butylisothiazol-5(2H)-ylidene]-5-chloro-2-methoxybenzamide], the figures for the inhibition constant (Ki) in assay [1] and in assay [2] were 9.1 nM and 1.1 nM, respectively.
In the case of `COc1ccc(Cl)cc1C(=O)/N=c1\sn(C(C)(C)C)cc1C(O)c1cccs1` (centres unmarked) [Example 44, N-[(5Z)-2-tert-butyl-4-[hydroxy(thien-2-yl)methyl]isothiazol-5(2H)-ylidene]-5-chloro-2-methoxybenzamide], the inhibition constant Ki in assay [1] was 27 nM; in assay [2] it was 2.1 nM.
Regarding `COC(=O)CCCc1cn(C(C)(C)C)s/c1=N\C(=O)c1cc(Cl)ccc1OC` [Example 45, Methyl 4-{(5Z)-2-tert-butyl-5-[(5-chloro-2-methoxybenzoyl)imino]-2,5-dihydroisothiazol-4-yl}butanoate], the values for the Ki in assay [1] (setting [3]) and in assay [2] were 120 nM and 5.6 nM, respectively.
Consider `CCCCc1cn(C(C)(C)C)s/c1=N\C(=O)c1cc(Cl)ccc1OCC(F)(F)F` [Example 47, N-[(5Z)-4-butyl-2-tert-butylisothiazol-5(2H)-ylidene]-5-chloro-2-(2,2,2-trifluoroethoxy)benzamide], for which the Ki was found to be 7.3 nM in assay [1] and 1.8 nM in assay [2].
With `COc1ccc(C#N)cc1C(=O)/N=c1\sn(C(C)(C)C)cc1Cc1cccs1` [Example 53, N-[(5Z)-2-tert-butyl-4-(thien-2-ylmethyl)isothiazol-5(2H)-ylidene]-5-cyano-2-methoxybenzamide], the Ki was found to be 59 nM in assay [1] and 2.6 nM in assay [2].
As for `COc1ccc(Cl)cc1C(=O)/N=c1\sn(C(C)(C)C)cc1Cc1cccs1` [Example 54, N-[(5Z)-2-tert-butyl-4-(thien-2-ylmethyl)isothiazol-5(2H)-ylidene]-5-chloro-2-methoxybenzamide], the Ki worked out at 17 nM in assay [1] and 1 nM in assay [2].
`CCCCc1cn(C(C)(C)C)s/c1=N\C(=O)c1cc(C=NOC)ccc1OC` [Example 57, N-[(5Z)-4-butyl-2-tert-butylisothiazol-5(2H)-ylidene]-2-methoxy-5-[(methoxyimino)methyl]benzamide]: the Ki in assay [1] (setting [3]) came to 190 nM; in assay [2] it was 18 nM.
In the case of `CCCCc1cn(C(C)(C)C)s/c1=N\C(=O)c1cc(I)ccc1OC` [Example 61, N-[(5Z)-4-butyl-2-tert-butylisothiazol-5(2H)-ylidene]-5-iodo-2-methoxybenzamide], the Ki is 7.6 nM in assay [1] and 0.51 nM in assay [2].
In the same order, the values of `C#Cc1ccc(OC)c(C(=O)/N=c2\sn(C(C)(C)C)cc2CCCC)c1` [Example 62, N-[(5Z)-4-butyl-2-tert-butylisothiazol-5(2H)-ylidene]-5-ethynyl-2-methoxybenzamide] are 27 nM and 3.1 nM.
On to `CCCCc1cn(C(C)(C)C)s/c1=N\C(=O)c1cc(OC(F)(F)F)ccc1OC` [Example 63, N-[(5Z)-4-butyl-2-tert-butylisothiazol-5(2H)-ylidene]-2-methoxy-5-(trifluoromethoxy)benzamide], for which the results for the inhibition constant (Ki) in assay [1] and in assay [2] were 33 nM and 3.4 nM, respectively.
`CCCCc1cn(C(C)(C)C)s/c1=N\C(=O)c1cc(CF)ccc1OC` [Example 66, N-[(5Z)-4-butyl-2-tert-butylisothiazol-5(2H)-ylidene]-5-(fluoromethyl)-2-methoxybenzamide]: the Ki in assay [1] (setting [3]) came to 103 nM; in assay [2], 12 nM.
Regarding `CC(C)(C)n1cc(Cc2ccco2)/c(=N/C(=O)c2cccc(C(F)(F)F)c2F)s1` [Example 70, N-[(5Z)-2-tert-butyl-4-(2-furylmethyl)isothiazol-5(2H)-ylidene]-2-fluoro-3-(trifluoromethyl)benzamide], the Ki in assay [1] amounted to 34 nM; in assay [2], 4.2 nM.
As for `CCCCc1cn(C(C)(C)C)s/c1=N\C(=O)c1cc(C(C)C)ccc1OC` [Example 82, N-[(5Z)-4-butyl-2-tert-butylisothiazol-5(2H)-ylidene]-5-isopropyl-2-methoxybenzamide], the Ki in assay [1] (setting [3]) amounted to 160 nM; in assay [2], 15 nM.
Regarding `COc1ccc(Cl)cc1C(=O)/N=c1\sn(C(C)(C)C)cc1COC[C@H]1CCCO1` [Example 89, N-[(5Z)-2-tert-butyl-4-{[(2R)-tetrahydrofuran-2-ylmethoxy]methyl}isothiazol-5(2H)-ylidene]-5-chloro-2-methoxybenzamide], the results for the Ki in assay [1] (setting [3]) and in assay [2] were 190 nM and 7.9 nM, respectively.
The corresponding values for `COc1ccc(Cl)cc1C(=O)/N=c1\sn(C(C)(C)C)cc1COCCF` [Example 90, N-[(5Z)-2-tert-butyl-4-[(2-fluoroethoxy)methyl]isothiazol-5(2H)-ylidene]-5-chloro-2-methoxybenzamide] are 280 nM and 27 nM.
Consider `CCCCc1cn(C(C)(C)C)s/c1=N\C(=O)C1(c2ccc(F)cc2Cl)CCCCC1` [Example 95, N-[(5Z)-4-butyl-2-tert-butylisothiazol-5(2H)-ylidene]-1-(2-chloro-4-fluorophenyl)cyclohexanecarboxamide], for which the Ki in assay [1] worked out at 7.5 nM; in assay [2], 2.3 nM.
Take `CCCCc1cn(C(C)(C)C)s/c1=N\C(=O)C1(c2ccccc2)CCCC1` [Example 98, N-[(5Z)-4-butyl-2-tert-butylisothiazol-5(2H)-ylidene]-1-phenylcyclopentanecarboxamide]: the inhibition constant (Ki) in assay [1] was 10 nM; in assay [2], 4.8 nM.
As for `CCCCc1cn(C(C)(C)C)s/c1=N\C(=O)C12CCC(C(=O)OC)(CC1)CC2` [Example 108, Methyl 4-({[(5Z)-4-butyl-2-tert-butylisothiazol-5(2H)-ylidene]amino}carbonyl)bicyclo[2.2.2]octane-1-carboxylate], the Ki was determined as 180 nM in assay [1] (setting [3]) and 13 nM in assay [2].
Turning to `CCCCc1cn(C(C)(C)C)s/c1=N\S(=O)(=O)c1cc(Cl)ccc1OC` [Example 115, N-[(5Z)-4-butyl-2-tert-butylisothiazol-5(2H)-ylidene]-5-chloro-2-methoxybenzenesulfonamide], the inhibition constant Ki in assay [1] stood at 53 nM; in assay [2], 33 nM.

What is called Ki is a dissociation constant, usually derived from enzyme kinetics or from competition with a known ligand.

(Values after patent publication US8501794B2, “Compounds as cannabinoid receptor ligands” (priority 2007, dated 2013).)
